Data on 48 compounds can be found in PubChem BioAssay (NCI).

Values joined by “and” are separate entries in the source; they are usually repeats but may differ in a detail not shown here. Equal values may be shown once.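 The compound was tested at five concentrations on cells cultured in 96-well plates, with a 48-hour exposure period. GI50 is the concentration that inhibits growth by half. TGI: total growth inhibition.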

Holding throughout (test): NCI tumour cell line growth inhibition, 48 h
Test [1] deals with M19-MEL melanoma.
Test [2] relates to XF 498 CNS.
Test [3] concerns DMS 273 small cell lung.
For test [4], the system named is RXF-631 renal.
Test [5] has as its system MDA-N.
In test [6] the test system is NCI/ADR-RES ovarian.
For test [7], the system named is T-47D breast.
Test [8] concerns HS 578T breast.
The subject of test [9] is MDA-MB-231 breast.
Test [10] relates to P388 leukemia.
Test [11] relates to P388/ADR leukemia.
In test [12] the test system is SN12K1 renal.

As to `Cc1ccc(C2=C(c3ccccc3)C(Br)(c3ccccc3)C(c3ccccc3)=C2c2ccc(C)cc2)cc1`, the TGI in test [1] and in [2] was over 100 µM each time.

Regarding `CC12CC3CC(C1)CC(N=[N+]=[N-])(C3)C2`, the TGI in test [3], in test [1], in test [4] and in test [2] was over 100 µM each time.

In the case of `Cc1cccc2c1C(=O)OC2(C)c1cccc2ccccc12` (stereo not given), the TGI in test [1] was over 100 µM; in test [2] it was 86 µM.

As to `CC(C)(c1ccc(OC#N)cc1)c1ccc(OC#N)cc1`, the TGI in [1] and in [4] was over 100 µM in each case.

For `CC(=O)c1c[nH]cc1CO`, the TGI in [5], in test [6] and in test [7] was over 10 µM throughout.

On to `O=C(/C=C1/NC(=O)CS1)Nc1ccccc1`, for which the TGI in test [3], in [1], in [4] and in [2] was over 100 µM throughout.

Take `COc1cc2cccc(NC(=O)c3cc(OC)c(OC)c(OC)c3Br)c2cc1OC`: the results for the TGI in test [1] and in [2] were 32.5 µM and 7.37 µM, respectively.

On to `O=C1C[C@@H]2CCCC[C@@H]2C12SCCS2`, for which the TGI in test [3], in test [1], in [4] and in test [2] was over 100 µM throughout.

Consider `COc1ccccc1/C=N/N=C(\N)NO`, for which the TGI in test [1] is over 100 µM.

With `Clc1nc(Cl)c(Cc2ccccc2)c(Cl)n1`, the TGI in test [8] was 19.9 µM; in test [9], 14.9 µM; in [5], 12.5 µM; in [6], over 100 µM; in test [7], 42.4 µM.

On to `CC(C)CCc1c(Cl)nc(Cl)nc1Cl`, for which the values for the TGI in test [8], in test [5] and in [6] were 56.8 µM, 21.4 µM and over 100 µM, respectively.

Take `c1ccc(SC(CCCCOC2CCCCO2)Sc2ccccc2)cc1` (stereo not given): the TGI in [3], in [1] and in test [2] was over 100 µM throughout.

`COc1ccc2c(c1)CC1c3c(cc4c(c3-2)OCO4)CCN1C` (stereo not given): the TGI in [3] is over 100 µM; in test [1] it was 45.2 µM; in [4], 73.6 µM; in test [2], 74 µM.

As to `O=C1CCCC1NC(=O)C(F)(F)F` (stereo not given), the TGI in [3], in test [1] and in [2] was over 100 µM in each case.

On to `N#CC(C#N)=C1SCC(=O)CS1`, for which the TGI in test [3], in [1], in test [4] and in [2] was over 100 µM in each case.

As to `Cn1c(=O)c(C(=O)NC(=O)OCc2ccccc2)cn(CCSCCOC(=O)NCCCCCCNC(=O)OCCSCCn2cc(C(=O)NC(=O)OCc3ccccc3)c(=O)n(C)c2=O)c1=O`, the TGI in [3] was over 100 µM; in [1], over 100 µM; in [4] it was over 100 µM; in test [2] it was 57.6 µM.

Take `Clc1ccc(SCCCCCCCCCCSc2ccc(Cl)cc2)cc1`: the TGI in test [3], in [1] and in test [2] was over 100 µM in each case.

On to `O=C(CN1C(=O)c2ccccc2C1=O)C(O)CN1C(=O)c2ccccc2C1=O` (stereo not given), for which the TGI in test [8] is over 100 µM; in [9], 50.5 µM; in [5] it was over 100 µM; in test [6], over 100 µM; in test [7], over 100 µM.

As to `O=C1C(=O)c2ccccc2C(O)=C1CCCCCCCCC1CCCCC1`, the TGI in test [8] was 39.6 µM; in test [9], 17.3 µM; in test [5] it was 17.9 µM; in test [6] it was 25.3 µM; in test [7], 21.5 µM.

As for `Cc1cc(=O)oc2cc(OCc3nc4ccccc4c(=O)[nH]3)ccc12`, the TGI in test [3], in test [1] and in test [2] was over 100 µM throughout.

On to `COc1cc(/C=C2/C(=O)NC(Cc3cc(OC)c(OC)c(C)c3OC)C(=O)N2Cc2ccccc2)c(OC)c(C)c1OC` (stereo not given), for which the TGI in [3], in test [1] and in [4] was over 100 µM each time.

As to `CNc1nc(N(C)C)nc(N(C)C)n1`, the GI50 in test [3] was > 100 µM and 1230 µM; in [1] it was > 100 µM and 2040 µM; in [2], > 100 µM and 538 µM. For the same compound, the TGI in [3] is > 100 µM and 2740 µM; in test [8] it was 4450 µM; in test [1], > 100 µM and 3950 µM; in [9] it was 2640 µM; in test [5], 2850 µM; in [6], 2650 µM. In addition, the TGI in test [10] is 1530 µM; in test [11] it was 1800 µM; in test [12], 2620 µM; in test [7], 3720 µM; in test [2], > 100 µM and 1720 µM.

Consider `CCOC1C=CCCO1` (stereo not given), for which the TGI in test [8], in [9], in test [5], in test [6] and in test [7] was over 100 µM throughout.

Take `C/C(=N\O)C(CN1CCCCC1)C(c1ccccc1)c1c(O)c2ccccc2oc1=O` (stereo not given): the TGI in test [1] and in [2] was over 100 µM in each case.

For the compound `O=P1(O)c2ccccc2Nc2cc(C(F)(F)F)ccc21`, the TGI in test [3], in [8], in [1], in test [9], in test [5] and in [6] was over 100 µM throughout. Besides, the TGI in [7] and in test [2] was over 100 µM each time.

Regarding `CCOc1ccccc1NC(=O)C1=C(C)NC(C)=C(C(=O)Nc2ccccc2OCC)C1c1ccc(NC(C)=O)cc1`, the TGI was over 100 µM in test [1] and 43.5 µM in test [2].

In the case of `Cc1ccc(N2C(=O)/C(=C/c3ccc(N(CCC#N)CCC#N)cc3C)N=C2c2cc([N+](=O)[O-])ccc2Cl)cc1`, the TGI in test [3], in test [1] and in [4] was over 100 µM each time.

As to `Cc1ccc(/C=C2\CCCC\C2=N\O)cc1`, the TGI in [3], in test [1] and in [2] was over 100 µM in each case.

With `C[CH2][Sn]([CH2]C)([O]C(=O)c1cccc(F)c1)[O][Sn]([CH2]C)([CH2]C)[O]C(=O)c1cccc(F)c1`, the GI50 was 32 µM in test [3], 16.8 µM in [1] and 16.2 µM in test [2]. In addition, the values for the TGI in [3], in test [1] and in test [2] were over 100 µM, 31.9 µM and 29.8 µM, respectively.

On to `C=CCN=C1NC(=O)C(CC(=O)Nc2ccc(C)cc2)S1` (stereo not given), for which the TGI in [3], in [1], in [4] and in test [2] was over 100 µM in each case.

With `C=C(C)[C@H](O)C(O)CC(C)[C@@H]1CCC23CC12CCC1[C@@]2(C)CCC(OC(C)=O)C(C)(C)C2CC(OC2OC(COC(C)=O)C(O)C(O)C2O)[C@]13C` (stereo not given in full), the TGI is 11.4 µM in test [3], 10.7 µM in test [1] and 12 µM in [4].

As to `COc1cc(C(=O)CC2(O)C(=O)Nc3c(Cl)cc(Cl)cc32)ccc1O` (stereo not given), the TGI in test [3], in test [4] and in test [2] was over 100 µM throughout.

As to `CC1=Nn2c(nnc2-c2ccc(N)cc2)NC(C)(C)C1`, the TGI in test [3], in [1], in [4] and in test [2] was over 100 µM in each case.

`CCOC(=O)NC(=O)c1cn(CCN2CCN(C(=O)NCCCCCCNC(=O)N3CCN(CCn4cc(C(=O)NC(=O)OCC)c(=O)n(CCN(CC)CC)c4=O)CC3)CC2)c(=O)n(CCC(CC)CC)c1=O`: the TGI in test [3] and in test [1] was over 100 µM in each case.

Turning to `C[C@@H]1C[C@@]2(O[C@@H]2C)C(=O)O[C@@H]2CCN3CC=C(COC(=O)[C@]1(C)O)[C@H]23`, the TGI in [8], in [9], in [5], in test [6] and in [7] was over 100 µM in each case.

On to `CC1(C)C2C/C(=C\c3ccccc3)C(=O)C1C2` (stereo not given), for which the TGI in test [3], in [1] and in test [4] was over 100 µM in each case.

Regarding `COC(=O)C(CC(=O)Nc1ccc(Cl)c(Cl)c1)C(=O)C(=O)NC1C2CC3CC(C2)CC1C3` (stereo not given), the TGI in test [3] and in test [1] was over 100 µM in each case.

As for `O=C(NCP(=O)(O)O)c1cccnc1`, the TGI in [9], in [5], in test [6] and in test [7] was over 100 µM in each case.

As to `COc1cc(-c2oc3c(OC)c(O)c(OC)c(O)c3c(=O)c2OC)ccc1O`, the TGI in [8] was 40.1 µM; in [9], over 100 µM; in [5] it was over 100 µM; in test [6], over 100 µM; in [7], 67.1 µM.

On to `C[CH2][Sn]([Cl])([Cl])[CH2]C`, for which the GI50 is over 91.2 µM in [3] and 26 µM in [1]. Also, the values for the TGI in test [3] and in test [1] were over 100 µM and over 67.2 µM, respectively.

With `CS/C(c1ccccc1)=[N+](/C)[O-]`, the TGI in test [1], in test [4] and in test [2] was over 100 µM in each case.

With `NC(CCSC(F)F)C(=O)O` (stereo not given), the TGI in [3], in test [1] and in test [2] was over 100 µM in each case.

Take `COCCNC(=O)c1ccc(-c2nc3ccc4[nH]ncc4c3c3c2CCCC3)cc1`: the GI50 was 0.88 µM in test [8], 2.15 µM in test [9], 4.29 µM in [6] and 1.97 µM in test [7]. Moreover, the TGI in [8] was 4.68 µM; in test [9] it was 73 µM; in test [6], over 100 µM; in [7], 16.3 µM.

Regarding `COc1cc([C@@H]2OC(=O)C3C2C(=O)O[C@H]3c2cc(OC)c(OC)c(OC)c2)cc(OC)c1OC` (stereo not given in full), the TGI in test [3], in test [1], in test [4] and in test [2] was over 100 µM each time.

Regarding `O=C1C[C@H]2CC3(CC[C@H]2CN1)OCCO3`, the TGI in [3], in test [1] and in [2] was over 100 µM each time.

Regarding `Cc1cccc2c1C/C(=C1\CCc3c(C)cccc31)C2=O`, the TGI in [3], in test [1] and in [4] was over 100 µM each time.

For `C/C(=C\CC[C@]1(C)OC(C)(C)OC1CC/C(C)=C/CO[Si](c1ccccc1)(c1ccccc1)C(C)(C)C)CC/C=C/CO[Si](C)(C)C(C)(C)C` (stereo not given in full), the TGI in [3] and in [1] was over 100 µM throughout.

As for `O=C1/C(=C/c2ccc(Cl)cc2)COc2ccc(O)c(O)c21`, the GI50 in [8] is 1.8 µM; in test [9], 1.11 µM; in [6] it was 1.6 µM; in test [7] it was 1.2 µM. The TGI in test [8] was found to be 7.02 µM; in [9], 3.25 µM; in test [6], 15.8 µM; in [7] it was 2.98 µM.
